{
  "source": "patent US11446254B2",
  "about": "“Drug carrier having self-assembled 3-D nucleic acid nanostructure” (KOREA INSTITUTE OF SCIENCE AND TECHNOLOGY, priority 2014, dated 2022)",
  "system": "SCC7 cells",
  "format": "in vivo",
  "conditions": "18 days therapy",
  "description": "A balb/c nude mouse (5 weeks old, male) was used as an experimental animal group, and a tumor was formed by subcutaneously inoculating SCC7 cells (1.0×10^6 cells suspended in the culture medium) into the left thigh of the mouse. When the tumor volume became approximately 50 mm^3, the tumor was used for the experiment.\nFor the selective therapy of cancer tissue, DOX was each loaded into L-Td55 and L-Td92, which are a carrier having cancer tissue selectivity.\nThe therapy experiment was performed by classifying the mice into total six groups (PBS, L-Td55, L-Td92, free DOX, DOX@L-Td55, and DOX@L-Td92), and 7 mice per group were used. Before the therapy was performed each time, the tumor volume and the mouse body weight were measured. In this case, the tumor volume was calculated by a method of (minor axis^2*major axis)/2. Each sample was injected into the caudal vein of the mice completely subjected to measurement (see Slide #2 for concentration), the therapy was performed once every three days, and the therapy was performed total 6 times.",
  "data": [
    {"smiles": "COc1cccc2c1C(=O)c1c(O)c3c(c(O)c1C2=O)C[C@@](O)(C(=O)CO)C[C@@H]3O[C@H]1C[C@H](N)[C@H](O)[C@H](C)O1", "note": "[free DOX, doxorubicin]", "values": [
      {"measurement": "Therapeutic effect", "value": "slight therapeutic effects"}
    ]}
  ]
}
